In US20230125667A1, “NOVEL TDZD ANALOGS AS AGENTS THAT DELAY, PREVENT, OR REVERSE AGE-ASSOCIATED DISEASES AND AS ANTI-CANCER AND ANTILEUKEMIC AGENTS” (United States Government as represented by the Department …, priority 2020, published 2023):

Legend:
[1] = system: SN12C; assay: NCI-60 growth inhibition: SN12C (Renal Cancer); type: cell-based, human; conditions: Homo sapiens
[2] = system: MOLT-4; assay: NCI-60 growth inhibition: MOLT-4 (Leukemia); type: cell-based, human; conditions: Homo sapiens
[3] = system: NCI-H460; assay: NCI-60 growth inhibition: NCI-H460 (Non-Small-Cell Lung Cancer); type: cell-based, human; conditions: Homo sapiens
[4] = system: TK-10; assay: NCI-60 growth inhibition: TK-10 (Renal Cancer); type: cell-based, human; conditions: Homo sapiens
[5] = system: M14; assay: NCI-60 growth inhibition: M14 (Melanoma); type: cell-based, human; conditions: Homo sapiens
[6] = system: MCF7; assay: NCI-60 growth inhibition: MCF7 (Breast Cancer); type: cell-based, human; conditions: Homo sapiens
[7] = system: RXF 393; assay: NCI-60 growth inhibition: RXF 393 (Renal Cancer); type: cell-based, human; conditions: Homo sapiens
[8] = system: SK-MEL-28; assay: NCI-60 growth inhibition: SK-MEL-28 (Melanoma); type: cell-based, human; conditions: Homo sapiens
[9] = system: PC-3; assay: NCI-60 growth inhibition: PC-3 (Prostate Cancer); type: cell-based, human; conditions: Homo sapiens
[10] = system: HCT-116; assay: NCI-60 growth inhibition: HCT-116 (Colon Cancer); conditions: Homo sapiens, HCT-116
[11] = system: SNB-19; assay: NCI-60 growth inhibition: SNB-19 (CNS Cancer); type: cell-based, human; conditions: Homo sapiens
[12] = system: OVCAR-5; assay: NCI-60 growth inhibition: OVCAR-5 (Ovarian Cancer); type: cell-based, human; conditions: Homo sapiens
[13] = system: ACHN; assay: NCI-60 growth inhibition: ACHN (Renal Cancer); type: cell-based, human; conditions: Homo sapiens
[14] = system: SK-MEL-5; assay: NCI-60 growth inhibition: SK-MEL-5 (Melanoma); type: cell-based, human; conditions: Homo sapiens
[15] = system: K-562; assay: NCI-60 growth inhibition: K-562 (Leukemia); type: cell-based, human; conditions: Homo sapiens, K562
[16] = system: HOP-92; assay: NCI-60 growth inhibition: HOP-92 (Non-Small-Cell Lung Cancer); type: cell-based, human; conditions: Homo sapiens
[17] = system: 786-0; assay: NCI-60 growth inhibition: 786-0 (Renal Cancer); type: cell-based, human; conditions: Homo sapiens
[18] = system: HS 578T; assay: NCI-60 growth inhibition: HS 578T (Breast Cancer); type: cell-based, human; conditions: Homo sapiens
[19] = system: CCRF-CEM; assay: NCI-60 growth inhibition: CCRF-CEM (Leukemia); type: cell-based, human; conditions: Homo sapiens
[20] = system: NCI-H522; assay: NCI-60 growth inhibition: NCI-H522 (Non-Small-Cell Lung Cancer); conditions: Homo sapiens, NCI-H522
[21] = system: UO-31; assay: NCI-60 growth inhibition: UO-31 (Renal Cancer); type: cell-based, human; conditions: Homo sapiens
[22] = system: COLO 205; assay: NCI-60 growth inhibition: COLO 205 (Colon Cancer); type: cell-based, human; conditions: Homo sapiens
[23] = system: SF-539; assay: NCI-60 growth inhibition: SF-539 (CNS Cancer); type: cell-based, human; conditions: Homo sapiens
[24] = system: OVCAR-8; assay: NCI-60 growth inhibition: OVCAR-8 (Ovarian Cancer); type: cell-based, human; conditions: Homo sapiens
[25] = system: MV4-11 cell line (myelomonocytic leukemia); conditions: MV4-11 cells
[26] = system: HT29; assay: NCI-60 growth inhibition: HT29 (Colon Cancer); type: cell-based, human; conditions: Homo sapiens, HT-29
[27] = system: UACC-62; assay: NCI-60 growth inhibition: UACC-62 (Melanoma); type: cell-based, human; conditions: Homo sapiens
[28] = system: CAKI-1; assay: NCI-60 growth inhibition: CAKI-1 (Renal Cancer); type: cell-based, human; conditions: Homo sapiens
[29] = system: A498; assay: NCI-60 growth inhibition: A498 (Renal Cancer); type: cell-based, human; conditions: Homo sapiens
[30] = system: MALME-3M; assay: NCI-60 growth inhibition: MALME-3M (Melanoma); type: cell-based, human; conditions: Homo sapiens
[31] = system: UACC-257; assay: NCI-60 growth inhibition: UACC-257 (Melanoma); type: cell-based, human; conditions: Homo sapiens
[32] = system: NCI-H23; assay: NCI-60 growth inhibition: NCI-H23 (Non-Small-Cell Lung Cancer); type: cell-based, human; conditions: Homo sapiens
[33] = system: DU-145; assay: NCI-60 growth inhibition: DU-145 (Prostate Cancer); type: cell-based, human; conditions: Homo sapiens
[34] = system: BT-549; assay: NCI-60 growth inhibition: BT-549 (Breast Cancer); type: cell-based, human; conditions: Homo sapiens
[35] = system: EKVX; assay: NCI-60 growth inhibition: EKVX (Non-Small-Cell Lung Cancer); type: cell-based, human; conditions: Homo sapiens
[36] = system: MDA-MB-231/ATCC; assay: NCI-60 growth inhibition: MDA-MB-231/ATCC (Breast Cancer); type: cell-based, human; conditions: Homo sapiens
[37] = system: OVCAR-4; assay: NCI-60 growth inhibition: OVCAR-4 (Ovarian Cancer); type: cell-based, human; conditions: Homo sapiens
[38] = system: SF-268; assay: NCI-60 growth inhibition: SF-268 (CNS Cancer); type: cell-based, human; conditions: Homo sapiens
[39] = system: T-47D; assay: NCI-60 growth inhibition: T-47D (Breast Cancer); type: cell-based, human; conditions: Homo sapiens, T47D
[40] = system: MDA-MB-468; assay: NCI-60 growth inhibition: MDA-MB-468 (Breast Cancer); type: cell-based, human; conditions: Homo sapiens, MDA-MB-468
[41] = system: LOX IMVI; assay: NCI-60 growth inhibition: LOX IMVI (Melanoma); type: cell-based, human; conditions: Homo sapiens
[42] = system: SW-620; assay: NCI-60 growth inhibition: SW-620 (Colon Cancer); type: cell-based, human; conditions: Homo sapiens
[43] = system: HCT-15; assay: NCI-60 growth inhibition: HCT-15 (Colon Cancer); type: cell-based, human; conditions: Homo sapiens
[44] = system: IGROV1; assay: NCI-60 growth inhibition: IGROV1 (Ovarian Cancer); type: cell-based, human; conditions: Homo sapiens, IGROV-1
[45] = system: MDA-MB-435; assay: NCI-60 growth inhibition: MDA-MB-435 (Melanoma); type: cell-based, human; conditions: Homo sapiens
[46] = system: OVCAR-3; assay: NCI-60 growth inhibition: OVCAR-3 (Ovarian Cancer); type: cell-based, human; conditions: Homo sapiens
[47] = system: SNB-75; assay: NCI-60 growth inhibition: SNB-75 (CNS Cancer); type: cell-based, human; conditions: Homo sapiens
[48] = system: RPMI-8226; assay: NCI-60 growth inhibition: RPMI-8226 (Leukemia); type: cell-based, human; conditions: Homo sapiens
[49] = system: SK-MEL-2; assay: NCI-60 growth inhibition: SK-MEL-2 (Melanoma); type: cell-based, human; conditions: Homo sapiens

## C=C1C(=O)O[C@H]2[C@H]1CC/C(COC(=O)NCc1ccc(Cn3c(=O)sn(-c4ccccc4)c3=O)cc1)=C\CC[C@@]1(C)O[C@@H]21 [BSK-197]
[1]
  GI50: 2130 nM
[2]
  GI50: 2200 nM
[3]
  GI50: 3670 nM
[4]
  GI50: 2210 nM
[5]
  GI50: 1800 nM
[6]
  GI50: 1590 nM
[7]
  GI50: 1750 nM
[8]
  GI50: 1700 nM
[9]
  GI50: 2360 nM
[10]
  GI50: 1520 nM
[11]
  GI50: 4260 nM
[12]
  GI50: 2510 nM
[13]
  GI50: 1640 nM
[14]
  GI50: 3240 nM
[15]
  GI50: 1800 nM
[16]
  GI50: 1820 nM
[17]
  GI50: 1810 nM
[18]
  GI50: 4140 nM
[19]
  GI50: 830 nM
[20]
  GI50: 1740 nM
[21]
  GI50: 1680 nM
[22]
  GI50: 1770 nM
[23]
  GI50: 1570 nM
[24]
  GI50: 2830 nM
[25]; 24 h, 7AAD, MMB-TDZD analogs (Table 2)
  LD50, 7AAD (μM) 24 h: 1.26 µM
[25]; 24 h, Alamar blue, MMB-TDZD analogs (Table 2)
  LD50, Alamar blue (μM) 24 h: 2.02 µM
[25]; 24 h, YOPRO, MMB-TDZD analogs (Table 2)
  LD50, YOPRO (μM) 24 h: 1.17 µM
[25]; values in text
  LD50: 980 nM
[26]
  GI50: 2150 nM
[27]
  GI50: 2040 nM
[28]
  GI50: 2490 nM
[29]
  GI50: 3910 nM
[30]
  GI50: 2090 nM
[31]
  GI50: 1860 nM
[32]
  GI50: 3550 nM
[33]
  GI50: 1710 nM
[34]
  GI50: 2140 nM
[35]
  GI50: 1850 nM
[36]
  GI50: 1710 nM
[37]
  GI50: 2740 nM
[38]
  GI50: 2210 nM
[39]
  GI50: 1980 nM
[40]
  GI50: 1170 nM
[41]
  GI50: 1620 nM
[42]
  GI50: 1910 nM
[43]
  GI50: 1940 nM
[44]
  GI50: 2090 nM
[45]
  GI50: 2070 nM
[46]
  GI50: 1680 nM
[47]
  GI50: 2370 nM
[48]
  GI50: 2030 nM
[49]
  GI50: 2390 nM
